For data set [1] the following is noted: cited from earlier work; for Log10K (iron (III) binding constant): fully deprotonated chelator, independent of pH.
Another data set concerns S. epidermidis. In words: Anti-Microbial Test 2: in vitro growth inhibition by chelators (optical density at 600 nm). In kind it is cell-based, Staphylococcus epidermidis (axillary isolate). The note with it: chelator 5×10^−5 mol.dm^−3 in semi-synthetic medium pH 6.7, 16 hours at 37° C., relative to control medium. The procedure:
The chelators indicated in Table 4 were subjected to the following in vitro test for anti-microbial activity against Staphylococcus Epidermididis.
An axillary isolate of S. epidermidis was grown overnight in 100 ml of tryptone soy broth (TSB, ex Oxoid Ltd.). 10 ml of this culture was taken and subjected to centrifugation. The separated cells were re-suspended in 10 ml of phosphate-buffered saline and the centrifugation procedure repeated. The washed cells were re-suspended in 10 ml of phosphate-buffered saline to give the inoculum.
100 ml of semi-synthetic medium (SSM) [containing (NH4)2SO4 (0.066 g), MgSO4.7H2O (0.012 g), KCl (0.1 g), KH2PO4 (0.27 g), Na2HPO4 (1.43 g), Thiamin (0.1 mg), Biotin (0.05 mg), Peptone P (0.05 g), Glucose (2.0 mmole)] was sterilised by autoclaving at 121° C. for 20 minutes. After sterilisation, the pH was adjusted to 6.7 with HCl to give the control medium. The chelator-containing test media were prepared in a similar manner, the chelator being introduced at a concentration of 5×10^−5 mol.dm^−3, before the pH adjustment with HCl.
100 μl of the inoculum was introduced into each of the test media and the control medium. The cultures were incubated at 37° C. (with agitation at 200 rpm) for 16 hours. After this time, the optical density of the cultures were measured at 600 nm to determine the extent of bacterial growth. By comparing the optical density of the culture in the presence of chelating agent to that of the control, the percentage inhibition of growth was established for each of the chelators. (Optical density measurements were made on 1 in 4 dilutions of the cultures with 0.9% (w/v) saline, using 1 cm path length cuvettes, on a Pharmacia Biotech Ultrospec 200 Spectrophotometer.)

The subject of data set [2] is Staphylococcus epidermidis. As to conditions: cited from earlier work.
[3] abbreviates: literature values, 80% or greater reduction in growth over 16 to 24 hours at 37° C.

Where two headings read alike, the source gives them in different places. A value given as a limit tells only on which side of the number the result lay.

The MIC is the least concentration at which growth counts as inhibited.

Consider `O=C(O)CN(CC(=O)O)[C@@H]1CCCC[C@H]1N(CC(=O)O)CC(=O)O` (relative stereo) [CDTA, trans-1,2-diaminocyclohexane-N, N,N′,N′-tetraacetic acid], for which, in data set [1], the “Log10K (iron (III) binding constant)” value was 28.05. In addition, in the data set with S. epidermidis, the “Inhibition of growth (%)” value is above 70%.

Turning to `O=C(O)C(NCCNC(C(=O)O)c1ccccc1O)c1ccccc1O` (centres unmarked) [EDDHA, N,N′-ethylenebis[2-(2-hydroxyphenyl)glycine]], the “Log10K (iron (III) binding constant)” value in data set [1] is given as 35.5. Besides, the “Inhibition of growth (%)” value in the data set with S. epidermidis is on record as above 70%.

With `O=C(O)CN(CCN(CC(=O)O)CC(=O)O)CCN(CC(=O)O)CC(=O)O` [DTPA, diethylenetriaminepentaacetic acid], the “Log10K (iron (III) binding constant)” value in data set [1] is recorded as 28.6. Also, in the data set with S. epidermidis, the “Inhibition of growth (%)” value is recorded as above 70%.

For `Oc1cc(Cl)ccc1Oc1ccc(Cl)cc1Cl` [triclosan, 2′,4,4′-trichloro,2-hydroxy-diphenyl ether], the minimal inhibitory concentration (MIC) in data set [2] (setting [3]) was 0.01 to 10 µg/mL.

`O=C(O)CN(CCN(CCN(CC(=O)O)CC(=O)O)CC(=O)O)CCN(CC(=O)O)CC(=O)O` [TTHA, triethylenetetraaminehexaacetic acid]: the “Log10K (iron (III) binding constant)” value in data set [1] is 26.8. Moreover, the “Inhibition of growth (%)” value in the data set with S. epidermidis is on record as above 70%.

With `O=C(O)CN(CCOCCOCCN(CC(=O)O)CC(=O)O)CC(=O)O` [EGTA, Ethyleneglycol-O,O′-bis-(2-aminoethyl)-N,N,N′,N′-tetraacetic acid, reference compound], the “Log10K (iron (III) binding constant)” value in data set [1] is 20.5. In addition, the “Inhibition of growth (%)” value in the data set with S. epidermidis is reported as 21%.

As to `O=C(O)CC(NCCNC(CC(=O)O)C(=O)O)C(=O)O` (mixture of isomers) [EDDS, N,N-ethylenediaminedisuccinic acid, reference compound], the “iron (III) binding constant” value in data set [1] (Critical Stability Constants, Martell and Smith, 1974) is reported as 10^22. Besides, the “Log10K (iron (III) binding constant)” value in data set [1] is recorded as 22.0. Moreover, the “Inhibition of growth (%)” value in the data set with S. epidermidis came out at 18%.

Take `O=C(O)CN(CCN(CC(=O)O)CC(=O)O)CC(=O)O` [EDTA, ethylenediaminetetraacetic acid]: in data set [1], the “Log10K (iron (III) binding constant)” value is listed as 25.1. The “Inhibition of growth (%)” value in the data set on S. epidermidis was above 70%.

On to `O=C(O)CN(CC(=O)O)CC(=O)O` [NTA, Nitrilotriacetic acid, reference compound], for which the “Log10K (iron (III) binding constant)” value in data set [1] is given as 15.9. Also, the “Inhibition of growth (%)” value with S. epidermidis stood at 6%.

`CCO` [ethanol]: the minimum inhibitory concentration (MIC) result in data set [2] (stated by contrast, no source given) is “greater than 1 mg.ml^−1”.

Take `CC(C)=CCCC(C)=CCCC(C)=CCO` [farnesol, 3,7,11-trimethyldodeca-2,6,10-trienol]: the MIC result in data set [2] (setting [3]) is “ca. 25 μg.ml^−1”.

Values taken from patent US6793914B2, “Anti-microbial compositions” (Unilever Home & Personal Care USA, division of Conopco, Inc., priority 2000, dated 2004).
